How the values were obtained:
Assay type in all cases: in vivo
weeds [1] = assay: Pre-emergence test (greenhouse), activity against weeds; settings: in words
Procedure, shortened: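 Compound formulated in acetone with alkylaryl polyglycol ether emulsifier, diluted in water, and watered onto soil about 24 h after sowing, dosed by application rate per unit area. Damage rated after three weeks as % versus untreated control (0% = no action).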

weeds [2] = assay: Post-emergence test (greenhouse), activity against weeds; settings: in words
Experimental: (§1) Solvent: 5 parts by weight of acetone
(§2) Emulsifier: 1 part by weight of alkylaryl polyglycol ether
(§3) To produce a suitable preparation of active compound, 1 part by weight of active compound is mixed with the stated amount of solvent, the stated amount of emulsifier is added and the concentrate is diluted with water to the desired concentration.
(§4) Test plants which have a height of 5-15 cm are sprayed with the preparation of the active compound in such a way as to apply the particular amounts of active compound desired per unit area. The concentration of the spray liquor is chosen so that the particular amounts of active compound desired are applied in 2000 l of water/ha.
(§5) After three weeks, the degree of damage to the plants is rated in % damage in comparison to the development of the untreated control.
(§6) 0%=no action (like untreated control)

Maize [3] = assay: Post-emergence test/greenhouse, Maize; settings: greenhouse, after three weeks
Experimental: as §1, §2, §3, §4, §5, §6

Digitaria = assay: Post-emergence test/greenhouse, Digitaria; settings: greenhouse, after three weeks
Experimental: as §1, §2, §3, §4, §5, §6

Echinochloa = assay: Post-emergence test/greenhouse, Echinochloa; settings: greenhouse, after three weeks
Experimental: as §1, §2, §3, §4, §5, §6

Lolium [4] = assay: Post-emergence test/greenhouse, Lolium; settings: greenhouse, after three weeks
Experimental: as §1, §2, §3, §4, §5, §6

Sorghum [5] = assay: Post-emergence test/greenhouse, Sorghum; settings: greenhouse, after three weeks
Experimental: as §1, §2, §3, §4, §5, §6

Amaranthus = assay: Post-emergence test/greenhouse, Amaranthus; settings: greenhouse, after three weeks
Experimental: as §1, §2, §3, §4, §5, §6

Gallium = assay: Post-emergence test/greenhouse, Gallium; settings: greenhouse, after three weeks
Experimental: as §1, §2, §3, §4, §5, §6

Matricaria [6] = assay: Post-emergence test/greenhouse, Matricaria; settings: greenhouse, after three weeks
Experimental: as §1, §2, §3, §4, §5, §6

Maize [7] = assay: Pre-emergence test/Greenhouse, Maize
Procedure, shortened: (§7)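 Percent damage relative to untreated control plants, scored three weeks after treatment, is the read-out (0% meaning no effect). Treatment consisted of watering the soil with an emulsified aqueous preparation roughly 24 h after seeds were sown, at constant water volume per area.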

Soya beans = assay: Pre-emergence test/Greenhouse, Soya beans; settings: in vivo
Procedure, shortened: as §7

Lolium [8] = assay: Pre-emergence test/Greenhouse, Lolium; settings: after three weeks
Procedure, shortened: as §7

Poa = assay: Pre-emergence test/Greenhouse, Poa; settings: after three weeks
Procedure, shortened: as §7

Sorghum [9] = assay: Pre-emergence test/Greenhouse, Sorghum; settings: after three weeks
Procedure, shortened: as §7

Ambrosia = assay: Pre-emergence test/Greenhouse, Ambrosia; settings: after three weeks
Procedure, shortened: as §7

Matricaria [10] = assay: Pre-emergence test/Greenhouse, Matricaria; settings: after three weeks
Procedure, shortened: as §7

Solanum = assay: Pre-emergence test/Greenhouse, Solanum; settings: after three weeks
Procedure, shortened: as §7

Stellaria = assay: Post-emergence test/greenhouse, Stellaria; settings: greenhouse, after three weeks
Experimental: as §1, §2, §3, §4, §5, §6

Compound	activity against weeds (weeds [1])	activity against weeds (weeds [2])	degree of damage, Maize (Maize [3]; 60 g of ai./ha) [%]	degree of damage, Digitaria (Digitaria; 60 g of ai./ha) [%]	degree of damage, Echinochloa (Echinochloa; 60 g of ai./ha) [%]	degree of damage, Lolium (Lolium [4]; 60 g of ai./ha) [%]	degree of damage, Sorghum (Sorghum [5]; 60 g of ai./ha) [%]	degree of damage, Amaranthus (Amaranthus; 60 g of ai./ha) [%]	degree of damage, Gallium (Gallium; 60 g of ai./ha) [%]	degree of damage, Matricaria (Matricaria [6]; 60 g of ai./ha) [%]	degree of damage to the plants (% damage vs untreated control), Maize (Maize [7]; in vivo) [%]	degree of damage to the plants (% damage vs untreated control), Soya beans (Soya beans) [%]	degree of damage, Stellaria (Stellaria; 60 g of ai./ha) [%]	degree of damage to the plants (% damage vs untreated control), Lolium (Lolium [8]; 30 g of ai./ha) [%]	degree of damage to the plants (% damage vs untreated control), Poa (Poa; 30 g of ai./ha) [%]	degree of damage to the plants (% damage vs untreated control), Sorghum (Sorghum [9]; 30 g of ai./ha) [%]	degree of damage to the plants (% damage vs untreated control), Ambrosia (Ambrosia; 30 g of ai./ha) [%]	degree of damage to the plants (% damage vs untreated control), Matricaria (Matricaria [10]; 30 g of ai./ha) [%]	degree of damage to the plants (% damage vs untreated control), Solanum (Solanum; 30 g of ai./ha) [%]	further results
CCOc1nn(C(=O)NS(=O)(=O)c2c(C)cccc2C(=O)OC(C)C)c(=O)n1C [Example 44]	very strong activity against weeds	very strong activity against weeds	50	60	90	70	100	100	95	95	30	0								degree of damage to the plants (% damage vs untreated control), Lolium (Lolium [8]; 8 g of ai./ha): 95%; degree of damage to the plants (% damage vs untreated control), Poa (Poa; 8 g of ai./ha): 95%; degree of damage to the plants (% damage vs untreated control), Sorghum (Sorghum [9]; 8 g of ai./ha): 95%; degree of damage to the plants (% damage vs untreated control), Ambrosia (Ambrosia; 8 g of ai./ha): 95%; degree of damage to the plants (% damage vs untreated control), Matricaria (Matricaria [10]; 8 g of ai./ha): 95%; degree of damage to the plants (% damage vs untreated control), Solanum (Solanum; 8 g of ai./ha): 95%
CCOc1nn(C(=O)NS(=O)(=O)c2c(C)csc2C(=O)OC)c(=O)n1C1CC1 [Example 30]	very strong activity against weeds	very strong activity against weeds	15	90	70	60	95	100	85	100	0		100	95	95	80	95	95	95	
CCOC(=O)c1scc(C)c1S(=O)(=O)NC(=O)n1nc(OCC)n(C)c1=O [Example 54]	very strong activity against weeds	very strong activity against weeds	30		95	95	95	100	85	100	0		100	95	95	80	95	95	95	
COC(=O)c1scc(C)c1S(=O)(=O)NC(=O)n1nc(SC)n(C)c1=O [Example 6]	very strong activity against weeds	very strong activity against weeds									0									degree of damage, Maize (Maize [3]; 400 g of ai./ha): 20%; degree of damage, Digitaria (Digitaria; 400 g of ai./ha): 90%; degree of damage, Echinochloa (Echinochloa; 400 g of ai./ha): 95%; degree of damage, Lolium (Lolium [4]; 400 g of ai./ha): 95%; degree of damage, Sorghum (Sorghum [5]; 400 g of ai./ha): 80%; degree of damage, Amaranthus (Amaranthus; 400 g of ai./ha): 100%; degree of damage, Gallium (Gallium; 400 g of ai./ha): 90%; degree of damage, Matricaria (Matricaria [6]; 400 g of ai./ha): 100%; degree of damage, Stellaria (Stellaria; 400 g of ai./ha): 100%; degree of damage to the plants (% damage vs untreated control), Lolium (Lolium [8]; 125 g of ai./ha): 95%; degree of damage to the plants (% damage vs untreated control), Poa (Poa; 125 g of ai./ha): 95%; degree of damage to the plants (% damage vs untreated control), Sorghum (Sorghum [9]; 125 g of ai./ha): 95%; degree of damage to the plants (% damage vs untreated control), Ambrosia (Ambrosia; 125 g of ai./ha): 95%; degree of damage to the plants (% damage vs untreated control), Matricaria (Matricaria [10]; 125 g of ai./ha): 95%; degree of damage to the plants (% damage vs untreated control), Solanum (Solanum; 125 g of ai./ha): 95%
CCc1nn(C(=O)NS(=O)(=O)c2c(C)csc2C(=O)OC)c(=O)n1C [Example 5]	very strong activity against weeds	very strong activity against weeds									0	20		95	95	90	95	95	95	degree of damage, Maize (Maize [3]; 30 g of ai./ha): 10%; degree of damage, Digitaria (Digitaria; 30 g of ai./ha): 95%; degree of damage, Echinochloa (Echinochloa; 30 g of ai./ha): 80%; degree of damage, Lolium (Lolium [4]; 30 g of ai./ha): 70%; degree of damage, Sorghum (Sorghum [5]; 30 g of ai./ha): 90%; degree of damage, Amaranthus (Amaranthus; 30 g of ai./ha): 100%; degree of damage, Matricaria (Matricaria [6]; 30 g of ai./ha): 95%; degree of damage, Stellaria (Stellaria; 30 g of ai./ha): 90%
CCOC(=O)c1cccc(C)c1S(=O)(=O)NC(=O)n1nc(SC)n(C)c1=O [Example 7]	very strong activity against weeds	very strong activity against weeds	15	95	95	95	100		95	95	0	0	100							degree of damage to the plants (% damage vs untreated control), Lolium (Lolium [8]; 60 g of ai./ha): 95%; degree of damage to the plants (% damage vs untreated control), Sorghum (Sorghum [9]; 60 g of ai./ha): 95%; degree of damage to the plants (% damage vs untreated control), Ambrosia (Ambrosia; 60 g of ai./ha): 95%; degree of damage to the plants (% damage vs untreated control), Matricaria (Matricaria [10]; 60 g of ai./ha): 95%
CCSc1nn(C(=O)NS(=O)(=O)c2c(C)cccc2C(=O)OC)c(=O)n1C [Example 141]	very strong activity against weeds	very strong activity against weeds									30	0								degree of damage, Maize (Maize [3]; 30 g of ai./ha): 10%; degree of damage, Digitaria (Digitaria; 30 g of ai./ha): 70%; degree of damage, Echinochloa (Echinochloa; 30 g of ai./ha): 90%; degree of damage, Sorghum (Sorghum [5]; 30 g of ai./ha): 90%; degree of damage, Amaranthus (Amaranthus; 30 g of ai./ha): 100%; degree of damage, Gallium (Gallium; 30 g of ai./ha): 90%; degree of damage, Matricaria (Matricaria [6]; 30 g of ai./ha): 70%; degree of damage, Stellaria (Stellaria; 30 g of ai./ha): 95%; degree of damage to the plants (% damage vs untreated control), Lolium (Lolium [8]; 15 g of ai./ha): 90%; degree of damage to the plants (% damage vs untreated control), Poa (Poa; 15 g of ai./ha): 80%; degree of damage to the plants (% damage vs untreated control), Sorghum (Sorghum [9]; 15 g of ai./ha): 80%; degree of damage to the plants (% damage vs untreated control), Ambrosia (Ambrosia; 15 g of ai./ha): 90%; degree of damage to the plants (% damage vs untreated control), Matricaria (Matricaria [10]; 15 g of ai./ha): 80%; degree of damage to the plants (% damage vs untreated control), Solanum (Solanum; 15 g of ai./ha): 90%
CCOc1nn(C(=O)NS(=O)(=O)c2c(C)csc2C(=O)OC)c(=O)n1C [Example 1, 5-ethoxy-4-methyl-2-(4-methyl-2-methoxycarbonyl-thien-3-yl-sulphonylaminocarbonyl)-2,4-dihydro-3H-1,2,4-triazol-3-one]	very strong activity against weeds	very strong activity against weeds												95	95	90	95	95	95	degree of damage, Maize (Maize [3]; 125 g of ai./ha): 60%; degree of damage, Digitaria (Digitaria; 125 g of ai./ha): 95%; degree of damage, Echinochloa (Echinochloa; 125 g of ai./ha): 95%; degree of damage, Lolium (Lolium [4]; 125 g of ai./ha): 90%; degree of damage, Sorghum (Sorghum [5]; 125 g of ai./ha): 95%; degree of damage, Amaranthus (Amaranthus; 125 g of ai./ha): 100%; degree of damage, Matricaria (Matricaria [6]; 125 g of ai./ha): 100%; degree of damage, Stellaria (Stellaria; 125 g of ai./ha): 100%; degree of damage to the plants (% damage vs untreated control), Maize (Maize [7]; pre-emergence, 30 g of ai./ha, after three weeks): 10%

Source: US6441195B1, “Substituted sulphonylamino(thio) carbonyl compounds” (Bayer Aktiengesellschaft, priority 1995, dated 2002)
